# Test results taken from US9610273B2, “Method for the treatment of hypercholesterolemia” (SAMI LABS LIMITED, priority 2014, dated 2017).
# Marks after values point to notes of the source that are not given here.
# Key:
# [1] = system: mice; assay: Acute Oral Toxicity of Calebin A; type: in vivo
# Procedure: No mortality was observed up to 2000 mg/kg p.o. in mice up to two weeks of observation.
# [2] = system: C57 mice on high fat diet (60 kcal % Fat); assay: Effect of Calebin A on serum clinical chemistry parameters in high fat diet obese mice (hypercholesterolemia and hyperlipidemia); type: in vivo; conditions: for change in mean Albumin values: female animals, considered incidental; for ALT/SGPT / AST/SGOT / Albumin / Glucose / Total Cholesterol / Total Protein / Triglycerides / HDL / LDL / VLDL: 28 days, serum, n = 5; for ALT/SGPT / AST/SGOT / Albumin / Glucose / Total Cholesterol / Total Protein / Triglycerides: Mean ± SD; for HDL / LDL / VLDL: mean
# Excerpt: d. Diet: The animals were fed ad libitum with AMRUT Laboratory Animal feed manufactured by Pranav Agro Industries Limited, Sangli, Maharastra throughout the acclimatization Open Source Diet D12450B diet (with 10 kcal % Fat) and Open Source Diet D12492 High fat diet (with 60 kcal % Fat) manufactured by Research Diet Inc, USA procured from Indus Marketing, Hyderabad, Andhra Pradesh, INDIA was used for induction of obesity and the main study.
# Grouping of animals was done on the last day of acclimatization by body weight randomization and stratification method.
# The animals were divided into 5 groups viz., Group 1, 2, 3, 4 and 5 consisting of 10 animals (5 male and 5 female) each.
# a. Dose Volume: Dose volume/animal=10 ml/kg body weight for all animals throughout the study period
# b. Obesity induction: The G1 Control group animals were fed with normal control diet feed D12450B containing 10 kcal % fat and the G2 to G5 group animals were fed with high fat diet feed D12492 containing 60 kcal % fat during the induction of obesity and during main study. Obesity induction was done considering the scientific rationale that obesity is a serious risk factor for hypercholesterolemia.
# c. Main Study: The main study was started after the induction of obesity. The 3 doses of Calebin A was administered to animals from Day 29 daily consecutively for a period of 28 days. The feeding of diets continued in the main study in a similar way as performed in induction of obesity. The G1 Control and G2 High fat diet control group animals were administered with 0.5% CMC (Carboxy Methyl Cellulose) while other group animals received test item from Day 29 to Day 56 of the study period. The dose volume of administration was maintained according to the weekly body weight of individual animals.
# d. Duration of the study: The total duration of the study was 61 days (5 days Acclimatization period+28 days Induction of obesity+[…] Main study).
# The raw data obtained from the present study were subjected to computer statistical processing. The computer printout of the data (in the form of appendix) was verified with the original raw data. After verification, the data was subjected to One-way ANOVA (Analysis of Variance) with Dunnett's post test for the data on body weights, hematology and clinical chemistry parameters, organ weights using GraphPad Prism version 5.01, GraphPad Software. All analyses and comparisons was evaluated at the 95% level of confidence (P<0.05), indicated by the designated by the superscripts of a where G1 is compared to G3, G4, G5, and G6 and b where G2 is compared to G3, G4, G5, and G6 throughout the report as stated below: *: Statistically significant (P<0.05) wherever applicable.
# At the completion of the study period, blood samples were collected from all the animals in tubes containing potassium ethylene […] tetra acetic acid (K2-EDTA) anticoagulant for hematology and without anticoagulant for clinical chemistry. The blood samples collected in tubes without anticoagulant were centrifuged at 3000 rpm for 10 minutes to obtain serum. Blood samples were collected humanely from retro-orbital plexus puncture method under mild ether anesthesia with the help of a fine capillary tube. The following clinical chemistry parameters were analyzed.
# The following clinical chemistry parameters (TABLE III) were analyzed using the “Erba Mannheim Chem Touch analyzer” (Transasia Bio-Medicals Ltd, India) from serum samples.
# [3] = conclusion, doses of 5, 10 and 20 mg/kg body weight, hypercholesterolemic mammals
# [4] = female mice, G3 5 mg/kg + High fat diet (60 kcal % Fat)
# [5] = female mice, G4 10 mg/kg + High fat diet (60 kcal % Fat)
# [6] = female mice, G5 20 mg/kg + High fat diet (60 kcal % Fat)
# [7] = male and female animals, G3, G4, G5 (5, 10, 20 mg/kg + High fat diet) compared to G2 High fat diet Control
# [8] = male animals, G3, G4, G5 (5, 10, 20 mg/kg + High fat diet) compared to G2 High fat diet Control
# [9] = male mice, G3 5 mg/kg + High fat diet (60 kcal % Fat)
# [10] = male mice, G4 10 mg/kg + High fat diet (60 kcal % Fat)
# [11] = male mice, G5 20 mg/kg + High fat diet (60 kcal % Fat)
compound,measurement,setting,value
COc1cc(/C=C/C(=O)COC(=O)/C=C/c2ccc(O)c(OC)c2)ccc1O [Calebin A],Aggression,"[1]; mouse, in vivo, po",Aggression = Nil
same,Atexia,"[1]; mouse, in vivo, po",Atexia = Nil
same,Blanching,"[1]; mouse, in vivo, po",Blanching = Nil
same,Clonic Convulsions,"[1]; mouse, in vivo, po",Clonic Convulsions = Nil
same,Corneal,"[1]; mouse, in vivo, po",Corneal = No effect
same,Cyanosis,"[1]; mouse, in vivo, po",Cyanosis = Nil
same,Diarrhea,"[1]; mouse, in vivo, po",Diarrhea = Nil
same,Excitation,"[1]; mouse, in vivo, po",Excitation = Nil
same,Fear,"[1]; mouse, in vivo, po",Fear = Nil
same,Fecal Output,"[1]; mouse, in vivo, po",Fecal Output = Normal
same,General Locomotor Activity,"[1]; mouse, in vivo, po",Normal
same,General Movement,"[1]; mouse, in vivo, po",General Movement = Normal
same,Hyperaemia,"[1]; mouse, in vivo, po",Hyperaemia = Nil
same,Muscular Weakness,"[1]; mouse, in vivo, po",Muscular Weakness = Nil
same,Passive,"[1]; mouse, in vivo, po",Passive = Nil
same,Pilo Erection,"[1]; mouse, in vivo, po",Pilo Erection = Nil
same,Pinnal,"[1]; mouse, in vivo, po",Pinnal = No effect
same,Respiration Depth,"[1]; mouse, in vivo, po",Respiration Depth = Normal
same,Respiration Rate,"[1]; mouse, in vivo, po",Respiration Rate = Normal
same,Salivation,"[1]; mouse, in vivo, po",Salivation = Nil
same,Tonic Convulsion,"[1]; mouse, in vivo, po",Tonic Convulsion = Nil
same,Tremors,"[1]; mouse, in vivo, po",Tremors = Nil
same,Urine Output,"[1]; mouse, in vivo, po",Urine Output = Normal
same,mortality,"[1]; up to 2000 mg/kg p.o., mice, up to two weeks of observation",No mortality
same,HDL concentrations in the blood,[2]; [3],increased
same,LDL concentrations in the blood,[2]; [3],decreased
same,VLDL concentrations in the blood,[2]; [3],decreased
same,serum triglyceride concentrations,"[2]; conclusion, doses of 5, 10 and 20 mg/kg body weight, hyperlipidemic mammals",lowered
same,change in mean Albumin values,[2]; G5 20 mg/kg + High fat diet compared to G1 Control (10 kcal % Fat),statistically significant decrease
same,change in mean Albumin values,[2]; G5 20 mg/kg + High fat diet compared to G2 High fat diet Control,statistically significant decrease
same,ALT/SGPT,[2]; [4],41.73 ± 5.39 IU/L
same,AST/SGOT,[2]; [4],80.51 ± 32.35 IU/L
same,Albumin,[2]; [4],2.82 ± 0.19 g/dL
same,Glucose,[2]; [4],134.52 ± 26.85 mg/dL
same,Total Cholesterol,[2]; [4],75.71 ± 13.90 mg/dL
same,Total Protein,[2]; [4],5.37 ± 0.80 g/dL
same,Triglycerides,[2]; [4],60.15 ± 10.25 mg/dL
same,HDL,[2]; [4],81.59 mg/dL
same,LDL,[2]; [4],78.68 mg/dL
same,VLDL,[2]; [4],15.14 mg/dL
same,ALT/SGPT,[2]; [5],63.29 ± 32.86 IU/L
same,AST/SGOT,[2]; [5],79.89 ± 50.05 IU/L
same,Albumin,[2]; [5],2.80 ± 0.38 g/dL
same,Glucose,[2]; [5],112.34 ± 11.35 mg/dL
same,Total Cholesterol,[2]; [5],47.54 ± 14.21 mg/dL
same,Total Protein,[2]; [5],4.91 ± 0.20 g/dL
same,Triglycerides,[2]; [5],59.70 ± 4.33 mg/dL
same,HDL,[2]; [5],66.85 mg/dL
same,LDL,[2]; [5],61.20* ^b ± mg/dl
same,VLDL,[2]; [5],9.51 mg/dL
same,ALT/SGPT,[2]; [6],55.51 ± 16.94 IU/L
same,AST/SGOT,[2]; [6],79.91 ± 36.82 IU/L
same,Glucose,[2]; [6],93.58 ± 11.49 mg/dL
same,Total Cholesterol,[2]; [6],69.14 ± 21.88 mg/dL
same,Total Protein,[2]; [6],4.88 ± 0.27 g/dL
same,Triglycerides,[2]; [6],52.88 ± 4.56 mg/dL
same,HDL,[2]; [6],66.67 mg/dL
same,LDL,[2]; [6],52.31** ^b ± mg/dl
same,VLDL,[2]; [6],13.83 mg/dL
same,change in mean Low Density Lipoproteins values,[2]; [7],decrease
same,change in mean Very Low Density Lipoproteins values,[2]; [7],decrease
same,change in mean high Density Lipoproteins values,"[2]; male and female animals, G4, G5 (10, 20 mg/kg + High fat diet) compared to G2 High fat diet Control",increase
same,change in mean Total Cholesterol values,[2]; [8],decrease
same,change in mean Triglycerides values,[2]; [8],decrease
same,ALT/SGPT,[2]; [9],64.35 ± 24.58 IU/L
same,AST/SGOT,[2]; [9],86.99 ± 35.22 IU/L
same,Albumin,[2]; [9],2.73 ± 0.23 g/dL
same,Glucose,[2]; [9],159.30 ± 17.02 mg/dL
same,Total Cholesterol,[2]; [9],63.46 ± 16.64 mg/dL
same,Total Protein,[2]; [9],4.74 ± 0.23 g/dL
same,Triglycerides,[2]; [9],76.53 ± 17.11 mg/dL
same,HDL,[2]; [9],20.46 mg/dL
same,LDL,[2]; [9],85.55 mg/dL
same,VLDL,[2]; [9],12.69 mg/dL
same,ALT/SGPT,[2]; [10],54.81 ± 13.58 IU/L
same,AST/SGOT,[2]; [10],89.48 ± 35.58 IU/L
same,Albumin,[2]; [10],2.43 ± 0.42 g/dL
same,Glucose,[2]; [10],130.49 ± 21.28 mg/dL
same,Total Protein,[2]; [10],5.08 ± 0.49 g/dL
same,HDL,[2]; [10],41.80 mg/dL
same,LDL,[2]; [10],97.45 mg/dL
same,VLDL,[2]; [10],12.37*^b ± mg/dl
same,ALT/SGPT,[2]; [11],48.44 ± 9.73 IU/L
same,AST/SGOT,[2]; [11],90.17 ± 25.87 IU/L
same,Albumin,[2]; [11],2.66 ± 0.17 g/dL
same,Glucose,[2]; [11],105.89 ± 37.17 mg/dL
same,Total Cholesterol,[2]; [11],70.48 ± 14.59 mg/dL
same,Total Protein,[2]; [11],4.42 ± 0.48 g/dL
same,HDL,[2]; [11],47.26 mg/dL
same,LDL,[2]; [11],94.46 mg/dL
same,VLDL,[2]; [11],14.10 mg/dL
